Experiment in all cases: E. coli hemG growth inhibition by herbicide, AtPPO1 variant
What all share (format): cell-based
Settings in all cases: read-out: percentage growth inhibition

One assay concerns the target T1, AtPPO1 Y426C (Arabidopsis thaliana, UniProt P55826, Y426C).
T1 construct: expressed in transfected cells; host or cells: E. coli BL21(DE3) hemG (pET24a, T7 promoter)
T1 sequence (P55826 35-537 Y426C): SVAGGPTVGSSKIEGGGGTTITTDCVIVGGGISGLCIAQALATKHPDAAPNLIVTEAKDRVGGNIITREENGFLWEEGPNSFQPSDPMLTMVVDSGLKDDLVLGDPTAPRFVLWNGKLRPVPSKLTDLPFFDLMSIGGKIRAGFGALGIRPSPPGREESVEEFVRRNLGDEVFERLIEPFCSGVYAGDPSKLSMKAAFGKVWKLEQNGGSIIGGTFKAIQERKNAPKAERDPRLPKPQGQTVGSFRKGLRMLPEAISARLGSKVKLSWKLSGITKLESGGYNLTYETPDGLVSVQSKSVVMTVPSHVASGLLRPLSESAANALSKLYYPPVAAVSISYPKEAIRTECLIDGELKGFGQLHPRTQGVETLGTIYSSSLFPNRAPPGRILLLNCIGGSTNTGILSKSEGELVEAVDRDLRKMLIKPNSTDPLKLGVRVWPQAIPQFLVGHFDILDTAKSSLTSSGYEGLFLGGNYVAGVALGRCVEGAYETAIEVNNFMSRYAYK
Summed up: (§1)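 E. coli BL21(DE3) ΔhemG::CmR complemented by AtPPO1 variants (pET24a, T7, E. coli codon-optimised); TB + 0.1 mM IPTG, 1:100 inoculum; 6.25 ppm herbicide 0/E or 0.78 ppm herbicide B vs DMSO; 24 h, 37° C, 250 rpm; OD600 at 24 h → % growth inhibition.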

In a further assay the target is T2, AtPPO1 D448N (Arabidopsis thaliana, UniProt P55826, D448N).
T2 construct: expressed in transfected cells; host or cells: E. coli BL21(DE3) hemG, pET24a plasmid
T2 sequence (P55826 35-537 D448N): T1 sequence (P55826 35-537 Y426C) with C392Y, D414N
In short, it runs like this: as §1

A further assay has as its target T3, AtPPO1 Y361T (Arabidopsis thaliana, UniProt P55826, Y361T).
T3 construct: expressed in transfected cells; host or cells: E. coli BL21(DE3) hemG (pET24a, T7 promoter)
T3 sequence (P55826 35-537 Y361T): T1 sequence (P55826 35-537 Y426C) with Y327T, C392Y
Summed up: as §1

A further assay has as its target T4, AtPPO1 V206G (Arabidopsis thaliana, UniProt P55826, V206G).
T4 construct: expressed in transfected cells; host or cells: E. coli BL21(DE3) hemG (hemG replaced by CmR), pET24a plasmid
T4 sequence (P55826 35-537 V206G): T1 sequence (P55826 35-537 Y426C) with V172G, C392Y
In short, it runs like this:
as §1

Where a chain is given by its changes, count along the chain named.

As to `C#CCN1C(=O)C(F)(F)Oc2cc(F)c(-n3c(=O)n(C)c(=S)n(C)c3=O)cc21` [Herbicide B, trifludimoxazin], the inhibition at 0.78 ppm turned out to be 2% on AtPPO1 Y426C, 40% on AtPPO1 D448N, 37% at AtPPO1 Y361T and 32% at AtPPO1 V206G.

Regarding `CCOC(=O)[C@]1(C)CC(c2cc(-n3c(=O)n(C)c(=S)n(C)c3=O)c(F)cc2Cl)=NO1` [Herbicide D, ethyl (5S)-3-[2-chloro-5-(3,5-dimethyl-2,6-dioxo-4-thioxo-1,3,5-triazinan-1-yl)-4-fluoro-phenyl]-5-methyl-4H-isoxazole-5-carboxylate], the inhibition at 6.25 ppm on AtPPO1 Y426C came to 34%; at AtPPO1 D448N it was 38%; on AtPPO1 Y361T it was 44%; at AtPPO1 V206G, 19%.

As to `CC(C)N(C)S(=O)(=O)NC(=O)c1cc(-n2c(=O)cc(C(F)(F)F)n(C)c2=O)c(F)cc1Cl` [Herbicide E, saflufenacil], the inhibition at 6.25 ppm on AtPPO1 Y426C came to 4%; at AtPPO1 D448N, 63%; on AtPPO1 Y361T it was 37%; at AtPPO1 V206G, 58%.

Source of the values: patent publication US20260297542A1, “HERBICIDE RESISTANT PLANTS” (SYNGENTA CROP PROTECTION AG, priority 2023, published 2026).
